# Patent US6696495B2, “Treatment of disorders secondary to organic impairments” (Snowden Pharmaceuticals, LLC, priority 1998, dated 2004)
# Where two headings read alike, the source gives them in different places.
# Legend:
# [1] = tested on: Reflex Sympathetic Dystrophy Syndrome (RSDS); Complex Regional Pain Syndrome (CRPS); test: Case history 27; format: in vivo, human
# [2] = tested on: Dementia, Alzheimer's-Type; test: Case history 24; format: in vivo, human; details: before sibutramine
# Experimental: 24. The Symptoms Due to Dementia, Alzheimer's-Type
# person one was diagnosed with Dementia. The symptoms they suffered from included memory loss and severe confusion. They tried a variety of treatments to relieve their symptoms including choldine esterase inhibitors, antidepressants, Ritilin, and aterol. […] They were then tested off of sibutramine. […] They began to suffer from a lowered I.Q. and their memory deteriorated.
# [3] = tested on: Sexual Function, ADD, and Rage Outbursts; test: Case history 3, Sibutramine Patient No. 100; format: in vivo, human
# [4] = tested on: Sexual Obsessive-Compulsive Behavior, ADD and Executive Function; test: Case history 6, Sibutramine Patient No. 77; format: in vivo, human; details: before sibutramine
# [5] = tested on: Severe Atypical Psychosis; test: Case history 1, Sibutramine Patient No. 97; format: in vivo, human; details: treatments before sibutramine
# [6] = tested on: Severe Post-Traumatic Stress Reaction
# Experimental: Finally, this patient was taken off of fluoxetine 20 mg when sibutramine treatment was initiated.
# Huntington's Disease = test: Case history 12, Sibutramine Patient No. 113; format: in vivo, human; details: after worsening of symptoms
# [7] = tested on: Tourette's Disease Tics, Violence, and ADHD; test: Case history 8, Sibutramine Patient No. 47; format: in vivo, human; details: over six years before sibutramine
# [8] = tested on: Tourette's Tics, Asocial Behavior, and Relief of Hyposexuality; details: before sibutramine
# [9] = tested on: Sexual Gender Choice Change; test: Case history 7, Sibutramine Patient No. 99; format: in vivo, human
# [10] = tested on: Non-Tourette's tics, obsessive-compulsive rituals, and attention deficit hyperactive disorder (ADHD); details: before sibutramine
# [11] = tested on: Asocial Behavior, Violence, and Hyposexuality; test: Case history 10, Sibutramine Patient No. 54; format: in vivo, human; details: before sibutramine
# [12] = tested on: ADHD Refractory to Other Treatments; format: in vivo, human; details: for response of ADHD to other medications: four years before sibutramine; for side effects of other medications: human, in vivo
# Experimental: 16. ADHD Refractory to Other Treatments (Problem No. 6) Sibutramine Patient No. 16
# The amphetamines made their nervous, jittery, and unable to sleep. […] They were started on sibutramine 10 mg every morning by mouth. […] After the first month, their dose was changed to 5 mg three times daily due to a five hour duration of effects.
# [13] = tested on: frontal lobe executive function, ADHD, and hyposexuality; details: human, in vivo
# Sexual Function and ADD = test: Case history 4, Sibutramine Patient No. 109; format: in vivo, human; details: before sibutramine
# [14] = tested on: Fibromyalgia—Chronic Fatigue Syndrome; details: before sibutramine
# [15] = tested on: Torticollis, Lingual Dystonia and Dyskinesia; test: Case history 23; format: in vivo, human; details: in vivo
# [16] = mood swings, cognitive, anger, sexual problems, before sibutramine
# [17] = depression, impulsive behaviors, mood swings, epileptic symptoms
compound,measurement,setting,value
CN(C)CCC=C1c2ccccc2CCc2ccccc21 [Elavil],response to other treatments,[1]; before sibutramine,helped their sleep and slightly increased their appetite but did not affect the pain
NCC1(CC(=O)O)CCCCC1 [Neurontin],response to other treatments,[1]; before sibutramine,ineffective
COC(=O)C(c1ccccc1)C1CCCCN1 (stereo not shown) [Ritilin],response to other treatments,[2],None of these treatments had any effect on their symptoms
CC(NC(C)(C)C)C(=O)c1cccc(Cl)c1 (stereo not shown) [bupropion],response to other medications,[3]; [16],unsuccessful
same,response to other medications,[4],unsuccessful
O=C1CC2(CCCC2)CC(=O)N1CCCCN1CCN(c2ncccn2)CC1 [buspirone],response of psychosis symptoms to other medications,[5],without success
same,response of PTSD symptoms to other medications,"[6]; human, in vivo",unsuccessful
NC(=O)N1c2ccccc2C=Cc2ccccc21 [carbamazepine],response to other medications,[3]; [16],"helped with their mood swings but not with their anger, sexual, or cognitive problems"
same,response to previous medications,Huntington's Disease,no longer responded
same,response to other medications,[7],without any good results
same,response to other medications,[8],without success
same,response of psychosis symptoms to other medications,[5],did not control their symptoms
same,response of PTSD symptoms to other medications,[6]; before sibutramine,unsuccessful
same,response to other medications,[9]; [17],"impulsive behaviors, mood swings, and epileptic symptoms were relieved"
same,response to other medications,[10],unsuccessful
same,response to other medications,[11],without any changes in their speech or mode of communication
C[C@H](N)Cc1ccccc1 [dextroamphetamine],response to other medications,[3]; [16],unsuccessful
same,response to other medications,[8],without success
same,response of ADHD to other medications,[12],without success
same,response of PTSD symptoms to other medications,[6]; before sibutramine,unsuccessful
same,response to other medications,[4],unsuccessful
COc1cc2c(cc1OC)C(=O)C(CC1CCN(Cc3ccccc3)CC1)C2 (stereo not shown) [donepezil],response to other medications,[3]; [16],not helpful
same,response to other medications,[13],unsuccessful
same,response to other medications,[7],helped their cognitive problems without aggravating their tics or their outbursts
same,response to other medications,[8],without success
same,response to other medications,[9]; [17],refractory
same,response to other medications,[10],unsuccessful
CNCCC(Oc1ccc(C(F)(F)F)cc1)c1ccccc1 (stereo not shown) [fluoxetine],response to other medications,[13],unsuccessful
same,response to previous medications,Huntington's Disease,no longer responded
same,response of psychosis symptoms to other medications,[5],without success
same,depression,"[6]; human, in vivo",the depression and PTSD were relieved
same,response to other medications,[9]; [17],refractory
NCC1(CC(=O)O)CCCCC1 [gabapentin],response to previous medications,Huntington's Disease,no longer responded
same,response to other medications,[7],without any good results
same,response to other medications,[8],without success
same,response to other medications,[9]; [17],refractory
O=C(CCCN1CCC(O)(c2ccc(Cl)cc2)CC1)c1ccc(F)cc1 [haloperidol],response to other medications,[8],without success
same,response of psychosis symptoms to other medications,[5],without success
same,response to other medications,[4],unsuccessful
same,response to other medications,[11],without any changes in their speech or mode of communication
CN(C)CCCN1c2ccccc2CCc2ccccc21 [imipramine],response to other medications,[3]; [16],unsuccessful
same,response to other medications,[9]; [17],refractory
Nc1nnc(-c2cccc(Cl)c2Cl)c(N)n1 [lamotrigine],response to other medications,[3]; [16],not helpful
same,response to other medications,[13],unsuccessful
same,response to other medications,Sexual Function and ADD,unsuccessful
same,response to other medications,[7],without any good results
same,response to other medications,[8],without success
same,response to other medications,[10],without success
CCN(CC)CC(=O)Nc1c(C)cccc1C [lidocaine],response to other treatments,[1]; in vivo,numbed the area
O=C([O-])[O-].[Li+].[Li+] [lithium carbonate],response to other medications,"[3]; human, in vivo",unsuccessful and made their obesity worse
same,response to other medications,"[9]; human, in vivo",refractory
COC(=O)C(c1ccccc1)C1CCCCN1 (stereo not shown) [methylphenidate],response to other medications,[3]; [16],unsuccessful
same,response to other medications,[13],Initially their attention problems responded
same,response to other medications,[7],without any good results
same,response to other medications,[8],without success
same,response of ADHD to other medications,[12],without success
same,side effects of other medications,[12],made their sleepy
same,response of PTSD symptoms to other medications,[6]; before sibutramine,unsuccessful
same,response to other medications,[9]; [17],refractory
same,response to other medications,[4],unsuccessful
same,response to other medications,[10],initially treated successfully
same,response to other medications,[11],without any changes in their speech or mode of communication
COc1ccc2cc(CCC(C)=O)ccc2c1 [nabumetone],response to other medications,[14],unsuccessfully
O=C(O)CCc1nc(-c2ccccc2)c(-c2ccccc2)o1 [oxaprozin],response to other medications,[14],unsuccessfully
CC(C)NCC(O)COc1cccc2ccccc12 (stereo not shown) [propranolol],response to other medications,Sexual Function and ADD,unsuccessful
same,response to other medications,[7],without any good results
same,response to other medications,[11],without any changes in their speech or mode of communication
OCCOCCN1CCN(C2=Nc3ccccc3Sc3ccccc32)CC1 [quetiapine],response to other medications,[7],without any good results
same,response of psychosis symptoms to other medications,[5],did not control their symptoms
same,response to other medications,[11],without any changes in their speech or mode of communication
C#CCN(C)[C@H](C)Cc1ccccc1 [selegiline],response to other medications,[3]; [16],not helpful
same,response to other medications,[13],unsuccessful
same,response to other medications,[7],without any good results
same,response to other medications,[8],without success
CN[C@H]1CC[C@@H](c2ccc(Cl)c(Cl)c2)c2ccccc21 [sertraline],response to other medications,[9]; [17],refractory
CCCc1nn(C)c2c(=O)[nH]c(-c3cc(S(=O)(=O)N4CCN(C)CC4)ccc3OCC)nc12 [sildenafil],response to other medications,[3]; [16],did not help their sexual libido
same,response to other medications,[13],helped correct the mechanical dysfunction but not the libido
same,response to other medications,Sexual Function and ADD,only increased sexual function but not libido
COc1cccc(C2(O)CCCCC2CN(C)C)c1 (stereo not shown) [tramadol],response to other medications,[14],unsuccessfully
CCCC(CCC)C(=O)O [valproic acid],response to other medications,[3]; [16],not helpful
same,response to other medications,Sexual Function and ADD,helped their anger attacks but interfered with their concentration considerably and did not help their sexual problems
same,response to other medications,[7],without any good results
same,response to other medications,[8],without success
same,response of PTSD symptoms to other medications,[6]; before sibutramine,unsuccessful
same,response to other medications,[4],unsuccessful
COC(=O)[C@@H]1[C@H]2C[C@H]3c4[nH]c5ccccc5c4CCN3C[C@@H]2CC[C@@H]1O [yohimbine],response to other medications,Sexual Function and ADD,unsuccessful
botulinum toxin,response to other treatment,[15],only temporarily relieved their symptoms
magnesium pemoline,response to other medications,[3]; [16],not helpful
same,response to other medications,Sexual Function and ADD,unsuccessful
same,response to other medications,[7],without any good results
same,response to other medications,[8],without success
same,response of ADHD to other medications,[12],without success
same,side effects of other medications,[12],made their sleepy
same,response to other medications,[4],unsuccessful
